Laboratory results taken from US6875451B2, “Compositions and methods for the treatment of primary and metastatic neoplastic diseases using arsenic compounds” (PolaRx Biopharmaceuticals Inc., priority 1997, dated 2005).
Like-named read-outs stand apart in the source and are kept apart here.

Tests used:
Assay type in all cases: cell-based
HL-60(TB) = conditions: 2 days
HT29 = test: SRB growth assay, 2 days exposure, colon cancer
Procedure: (§1) Arsenic trioxide (1 mg/ml, 10 mg/ampoule, manufactured by Taylor Pharmaceuticals, Decatur, Ill.) was tested at five concentrations each at 10-fold dilutions, i.e., 10^−5, 10^−6, 10^−7, 10^−8 and 10^−9 μg/ml.
(§2) The in vitro tests were performed by incubating the test cells in the presence of the indicated concentration of arsenic trioxide under standard culture conditions for a designated period of time, which is followed by a sulforhodamine B (SRB) protein assay to estimate cell viability or growth. The cell lines are organized into subpanels according to the origin of the cell lines, e.g., leukemia, breast cancer, etc. A description of the cell lines and method of testing is described in Monk et al. (1997, Anticancer Drug Des. 12:533-41) and Weinstein et al., (1997, Science 275:343-9), which are incorporated herein in their entirety.
(§3) The measurement of an effect is expressed in Percentage Growth (PG). The measured effect of the compound on a cell line is calculated according to one or the other of the following two expressions: If (Mean ODtest−Mean ODzero)≧0. then PG=100×(Mean ODtest−Mean ODzero)/(Mean ODctrl−Mean ODzero) If (Mean ODtest−Mean ODzero)<0. then PG=100×(Mean ODtest−Mean ODzero)/(Mean ODzero where: • Mean ODzero=the average of optical density measurements of SRB-derived color just before exposure of cells to the test compounds; • Mean ODtest=the average of optical density measurements of SRB-derived color after exposure of cells to the test compound for a designated period of time; and • Mean ODctrl=the average of optical density measurements of SRB-derived color after with no exposure of cells to the test compound for a designated period of time
(§4) The first two columns describe the subpanel (e.g., leukemia) and cell line (e.g., CCRF-CEM) involved. The next two columns list the Mean ODzero and Mean ODctrl; the next five columns list the Mean ODtest for each of five different concentrations. Each concentration is expressed as the log10 (molar or μg/ml). The next five columns list the calculated PGs for each concentration. The response parameters GI50, TGI and LC50 are interpolated values representing the concentrations at which the PG is +50, 0, and −50, respectively. Sometimes these response parameters cannot be obtained by interpolation. If, for instance, all of the PGs in a given row exceed +50, then none of the three parameters can be obtained by interpolation. In such a case, the value given for each response parameter is the highest concentration tested and is preceded by a “>” sign. This practice is extended similarly to the other possible situations where a response parameter cannot be obtained by interpolation.
(§5) In the first set, the cells from 56 different cancer cell lines were exposed to five concentrations of arsenic trioxide continuously for two days prior to performing the SRB assay. In the second set, the cells from 50 different cell lines (a subset of the first 56 cell lines, plus the renal cancer cell line 786-0) were exposed continuously for six days prior to the SRB assay.

HCT-15 = test: SRB growth assay, 2 days exposure, colon cancer
Procedure: as §1, §2, §3, §4, §5

COLO 205 = test: SRB growth assay, 2 days exposure, colon cancer
Procedure: as §1, §2, §3, §4, §5

SW-620 = test: SRB growth assay, 2 days exposure, colon cancer
Procedure: as §1, §2, §3, §4, §5

LOX IMVI = test: SRB growth assay, 6 days exposure, melanoma; conditions: LOX 1MVI
Procedure: as §1, §2, §3, §4, §5

UACC-257 = test: SRB growth assay, 6 days exposure, melanoma; conditions: UACC-257, 6 days
Procedure: as §1, §2, §3, §4, §5

OVCAR-8 = test: SRB growth assay, 2 days exposure, ovarian cancer
Procedure: as §1, §2, §3, §4, §5

IGROV1 = test: SRB growth assay, 2 days exposure, ovarian cancer
Procedure: as §1, §2, §3, §4, §5

OVCAR-3 = test: SRB growth assay, 2 days exposure, ovarian cancer
Procedure: as §1, §2, §3, §4, §5

SK-OV-3 = test: SRB growth assay, 2 days exposure, ovarian cancer
Procedure: as §1, §2, §3, §4, §5

OVCAR-5 = test: SRB growth assay, 2 days exposure, ovarian cancer
Procedure: as §1, §2, §3, §4, §5

Substance: arsenic trioxide
- TGI (HL-60(TB)): 0.0103 ng/mL
- Percent Growth (HL-60(TB); log10 conc −4.9): −9%
- Percent Growth (HL-60(TB); log10 conc −5.9): 90%
- Percent Growth (HL-60(TB); log10 conc −6.9): 102%
- Percent Growth (HL-60(TB); log10 conc −7.9): 92%
- Percent Growth (HL-60(TB); log10 conc −8.9): 101%
- TGI (HT29): >0.0126 ng/mL
- Percent Growth (HT29; log10 conc −4.9): 15%
- Percent Growth (HT29; log10 conc −5.9): 80%
- Percent Growth (HT29; log10 conc −6.9): 100%
- Percent Growth (HT29; log10 conc −7.9): 104%
- Percent Growth (HT29; log10 conc −8.9): 112%
- TGI (HCT-15): >0.0126 ng/mL
- Percent Growth (HCT-15; log10 conc −4.9): 20%
- Percent Growth (HCT-15; log10 conc −5.9): 93%
- Percent Growth (HCT-15; log10 conc −6.9): 104%
- Percent Growth (HCT-15; log10 conc −7.9): 100%
- Percent Growth (HCT-15; log10 conc −8.9): 113%
- TGI (COLO 205): >0.0126 ng/mL
- Percent Growth (COLO 205; log10 conc −4.9): 57%
- Percent Growth (COLO 205; log10 conc −5.9): 104%
- Percent Growth (COLO 205; log10 conc −6.9): 117%
- Percent Growth (COLO 205; log10 conc −7.9): 102%
- Percent Growth (COLO 205; log10 conc −8.9): 103%
- TGI (SW-620): >0.0126 ng/mL
- Percent Growth (SW-620; log10 conc −4.9): 16%
- Percent Growth (SW-620; log10 conc −5.9): 85%
- Percent Growth (SW-620; log10 conc −6.9): 96%
- Percent Growth (SW-620; log10 conc −7.9): 98%
- Percent Growth (SW-620; log10 conc −8.9): 102%
- TGI (LOX IMVI): 1.32E−07
- Mean Optical Densities (LOX IMVI; Log 10 Concentration −4.9): −0.001
- Percent Growth (LOX IMVI; Log 10 Concentration −4.9): −100%
- Mean Optical Densities (LOX IMVI; Log 10 Concentration −5.9): 0.002
- Percent Growth (LOX IMVI; Log 10 Concentration −5.9): −88%
- Mean Optical Densities (LOX IMVI; Log 10 Concentration −6.9): 0.053
- Percent Growth (LOX IMVI; Log 10 Concentration −6.9): 2%
- Mean Optical Densities (LOX IMVI; Log 10 Concentration −7.9): 1.666
- Percent Growth (LOX IMVI; Log 10 Concentration −7.9): 77%
- Mean Optical Densities (LOX IMVI; Log 10 Concentration −8.9): 2.000
- Percent Growth (LOX IMVI; Log 10 Concentration −8.9): 93%
- TGI (UACC-257): 5.83E−06
- Mean Optical Densities (UACC-257; Log 10 Concentration −4.9): 0.039
- Percent Growth (UACC-257; Log 10 Concentration −4.9): −27%
- Mean Optical Densities (UACC-257; Log 10 Concentration −5.9): 0.504
- Percent Growth (UACC-257; Log 10 Concentration −5.9): 54%
- Mean Optical Densities (UACC-257; Log 10 Concentration −6.9): 0.832
- Percent Growth (UACC-257; Log 10 Concentration −6.9): 94%
- Mean Optical Densities (UACC-257; Log 10 Concentration −7.9): 0.857
- Percent Growth (UACC-257; Log 10 Concentration −7.9): 97%
- Mean Optical Densities (UACC-257; Log 10 Concentration −8.9): 0.872
- Percent Growth (UACC-257; Log 10 Concentration −8.9): 99%
- CC50 (UACC-257; read-out: LC50 (the source's name)): > 12.6 µM
- TGI (OVCAR-8): >0.0126 ng/mL
- Percent Growth (OVCAR-8; log10 conc −4.9): 28%
- Percent Growth (OVCAR-8; log10 conc −5.9): 80%
- Percent Growth (OVCAR-8; log10 conc −6.9): 84%
- Percent Growth (OVCAR-8; log10 conc −7.9): 92%
- Percent Growth (OVCAR-8; log10 conc −8.9): 92%
- TGI (IGROV1): >0.0126 ng/mL
- Percent Growth (IGROV1; log10 conc −4.9): 18%
- Percent Growth (IGROV1; log10 conc −5.9): 102%
- Percent Growth (IGROV1; log10 conc −6.9): 105%
- Percent Growth (IGROV1; log10 conc −7.9): 118%
- Percent Growth (IGROV1; log10 conc −8.9): 111%
- TGI (OVCAR-3): >0.0126 ng/mL
- Percent Growth (OVCAR-3; log10 conc −4.9): 12%
- Percent Growth (OVCAR-3; log10 conc −5.9): 90%
- Percent Growth (OVCAR-3; log10 conc −6.9): 97%
- Percent Growth (OVCAR-3; log10 conc −7.9): 99%
- Percent Growth (OVCAR-3; log10 conc −8.9): 101%
- TGI (SK-OV-3): >0.0126 ng/mL
- Percent Growth (SK-OV-3; log10 conc −4.9): 40%
- Percent Growth (SK-OV-3; log10 conc −5.9): 100%
- Percent Growth (SK-OV-3; log10 conc −6.9): 98%
- Percent Growth (SK-OV-3; log10 conc −7.9): 97%
- Percent Growth (SK-OV-3; log10 conc −8.9): 94%
- TGI (OVCAR-5): >0.0126 ng/mL
- Percent Growth (OVCAR-5; log10 conc −4.9): 34%
- Percent Growth (OVCAR-5; log10 conc −5.9): 97%
- Percent Growth (OVCAR-5; log10 conc −6.9): 93%
- Percent Growth (OVCAR-5; log10 conc −7.9): 103%
- Percent Growth (OVCAR-5; log10 conc −8.9): 105%
